According to paper PMC7998731, “Pharmacokinetic Characterization of Supinoxin and Its Physiologically Based Pharmacokinetic Modeling in Rats” (Pharmaceutics, 2021):
Values joined by “and” are separate entries in the source; they are usually repeats but may differ in a detail not shown here. Identical values can stand only once. Like-named read-outs stand apart in the source and are kept apart here.

Assays:
[1] = tested on: advanced triple-negative breast cancer; parameters: method as in doi:10.1200/JCO.2018.36.15_suppl.1097; settings: cited from earlier work
[2] = Determination of urinary and fecal excretion in rats; format: in vivo; settings: 5 mg/kg; for Fecal excretion, Amount / Fecal excretion, Fraction Excreted (unchanged) / Urinary excretion, Amount / Urinary excretion, Fraction Excreted (unchanged): 0–48 h
Method: Supinoxin was administered to male SD rats (n = 3–4) at a dose of 5 mg/kg either intravenously (through the tail vein) or by oral gavage, following which rats were kept in metabolic cages and urine and feces samples were collected over the following time intervals: 0–2, 2–4, 4–6, 6–10, 10–24, 24–36, and 36–48 h for urine; 0–10, 10–24, 24–36, and 36–48 h for feces.
The metabolic cages were rinsed with distilled water, and residues were added to the urine samples at 48 h. To extract the supinoxin present in the feces, samples were homogenized with a blender mixer and shaken vigorously for 4 h with 50% methanol.
The amount of drug excreted in urine or feces (Ae) and the dose fractions excreted unchanged in urine or feces (fe) were calculated as:Ae = Cobs, urine or feces × Vurine or feces(2) fe = Ae/Dose(3)
The urinary and fecal clearances of supinoxin were calculated as:CLurine or feces = Ae, urine or feces/AUC(4)

[3] = Unbound fraction in microsomal incubation mixture (Rapid Equilibrium Dialysis); format: in vitro ADME; settings: rat, liver microsomes 0.5 mg protein/mL
Method: To determine the unbound fraction of supinoxin in the plasma, a protein binding study was carried out using the Rapid Equilibrium Dialysis (RED) method. Following the manufacturer’s protocol (Thermo Fisher Scientific, San Jose, CA, USA), supinoxin was added to a plasma aliquot to produce a final concentration of 1 µg/mL. A plasma aliquot containing supinoxin (200 µL) and buffer (350 µL) was added to the sample chamber and the buffer chamber, respectively. When necessary, supinoxin was added to the microsomal incubation mixture (0.5 mg of protein per mL in potassium phosphate buffer) to produce final concentrations of 1 µM. The plate was covered and agitated on an orbital shaker at approximately 250 rpm at 37 °C. Aliquots (25 µL) of the plasma and buffer were collected at 4, 8, 18, and 24 h, and the samples were subjected to LC–MS/MS analysis. The fraction of supinoxin bound to plasma protein was estimated as follows:Percent bound (%) = [1 − (concentration in buffer/concentration in plasma)] × 100%(5)

[4] = cited from earlier work; for Plasma concentration, Mean: fasted male SD rats, oral 1 mg/kg, ref 15 (Table 2 footnote)
[5] = rats, oral, 1 mg/kg, Jeong, J.-W. et al., 2017

COc1cc(OC)cc(N2CCN(C(=O)Nc3nc4cc(F)ccc4nc3OC)CC2)c1 [supinoxin, 1-(3,5-Dimethoxyphenyl)-4-[(6-Fluoro-2-Methoxyquinoxalin-3-yl) Aminocarbonyl] Piperazine]
patients with stable disease ([1]; after two cycles of therapy): five of the 11 patients
safety and tolerability of the suggested dose [1]: safe and well tolerated
tumor reduction ([1]; one subject, after two cycles of therapy): 18.2%
Fecal excretion, Amount ([2]; IV): 142 ± 21.6 µg
Fecal excretion, Fraction Excreted (unchanged) ([2]; IV): 16.5% and 16.5 ± 2.82%
Urinary excretion, Amount ([2]; IV): 0.27 ± 0.06 µg
Urinary excretion, Fraction Excreted (unchanged) ([2]; IV): 0.03% and 0.03 ± 0.01%
Fecal excretion, Amount ([2]; PO): 412 ± 209 µg
Fecal excretion, Fraction Excreted (unchanged) ([2]; PO): 46.8% and 46.8 ± 24.5%
Urinary excretion, Amount ([2]; PO): 0.06 ± 0.04 µg
Urinary excretion, Fraction Excreted (unchanged) ([2]; PO): 0.01% and 0.01 ± 0.01%
dose excreted ([2]; male, Sprague-Dawley (SD), rat, urine, both intravenous and oral administration, read-out: total urinary recovery of unchanged supinoxin): < 0.1%
fraction unbound at 18 h, 1 µM ([3]; liver microsomal incubation mixture, 18 h incubation): 0.623 ± 0.016
fraction unbound at 4 h, 1 µM ([3]; 4 h incubation): 0.518 ± 0.025
fraction unbound at 8 h, 1 µM ([3]; 8 h incubation): 0.57 ± 0.017
fraction unbound at 24 h, 1 µM ([3]; 24 h incubation): 0.615 ± 0.046
Plasma concentration, Mean ([4]; 0.25 h): 211.9 ng/mL
Plasma concentration, Mean ([4]; 0.5 h): 233.6 ng/mL
Plasma concentration, Mean ([4]; 1 h): 231.2 ng/mL
Plasma concentration, Mean ([4]; 3 h): 122.2 ng/mL
Plasma concentration, Mean ([4]; 7 h): 34.9 ng/mL
Plasma concentration, Mean ([4]; 10 h): 13.7 ng/mL
Plasma concentration, Mean ([4]; 24 h, BQL treated as 0): 0.3 ng/mL
AUCinf [4, 5]: 1010 ± 420 ng·h/mL
AUClast [4, 5]: 984 ± 407 ng·h/mL
Cmax [4, 5]: 250 ± 93 ng/mL
F (absolute oral bioavailability) [4, 5]: 56.9 ± 23.7%
MRT [4, 5]: 3.15 ± 1.26 h
T1/2 [4, 5]: 2.11 ± 0.91 h
Tmax [4, 5]: 0.650 ± 0.337 h
